Measurements: patent US20230398163A1, “FRUIT EXTRACTS FOR USE IN THE TREATMENT OF NEURODEGENERATIVE DISEASES” (NEUROSCIENCE PHARMA SPA, priority 2020, published 2023)

Tested on: PC12 cells
Test: MTT cell viability assay, extract alone
Format: cell-based
Conditions: addition of FCCP
Procedure: Cellular health was quantified using a 3-(4,5-dimethylthizol-2-yl)-2,5-diphenyltetrazolium bromide (MTT) assay, which indicates cell viability. Cultured PC12 cells were incubated in MTT (1 mg/ml) in 1X DPBS (Dulbecco's phosphate-buffered saline) for 30 minutes, in the presence (or absence) of maqui berry extract provided a concentrations ranging from 0.000081 mg/l to 81 mg/l. Precipitated MTT was dissolved using isopropanol for 15 minutes prior to being added to the culture medium. The cell absorbance was measured in a microplate reader (Novostar, BGM, Germany) at two wavelengths: 560 nm and 620 nm. The difference in cellular absorbance was quantified between the two wavelengths using NovoStar software across experimental conditions.

## N#CC(C#N)=NNc1ccc(OC(F)(F)F)cc1 [FCCP, Carbonyl cyanide 4-(trifluoromethoxy)phenylhydrazone]
  cell viability percent relative to control (MTT): significant decrease in cell viability percent relative to control levels
